According to EP1024807B1, “USE OF THE COMPOUND 2-METHOXYPHENYL-1-METHYL-5P-METHYLBENZOYL-PYRROL-2-ACETAMIDO ACETATE FOR THE PRODUCTION OF AN ANTI-INFLAMMATORY DRUG WITH PREVENTION OF GASTRIC HYPERSECRETION AND RENAL IMPAIRMENT” (MEDOSAN Ricerca S.r.l., priority 1997, dated 1999):
Entries after “also recorded” stand apart in the source; their conditions may differ.

How the values were obtained:
[1] = biological target: T1, COX2 (cyclooxygenase 2) (Rattus norvegicus, UniProt P35355); experiment: Pharmacological studies in rats: cyclooxygenase inhibition; conditions: in vivo
T1 construct: the pharmacological studies conducted in rats; from tissue; host or cells: rat (in vivo; tissue not given)
T1 sequence (P35355 18-604): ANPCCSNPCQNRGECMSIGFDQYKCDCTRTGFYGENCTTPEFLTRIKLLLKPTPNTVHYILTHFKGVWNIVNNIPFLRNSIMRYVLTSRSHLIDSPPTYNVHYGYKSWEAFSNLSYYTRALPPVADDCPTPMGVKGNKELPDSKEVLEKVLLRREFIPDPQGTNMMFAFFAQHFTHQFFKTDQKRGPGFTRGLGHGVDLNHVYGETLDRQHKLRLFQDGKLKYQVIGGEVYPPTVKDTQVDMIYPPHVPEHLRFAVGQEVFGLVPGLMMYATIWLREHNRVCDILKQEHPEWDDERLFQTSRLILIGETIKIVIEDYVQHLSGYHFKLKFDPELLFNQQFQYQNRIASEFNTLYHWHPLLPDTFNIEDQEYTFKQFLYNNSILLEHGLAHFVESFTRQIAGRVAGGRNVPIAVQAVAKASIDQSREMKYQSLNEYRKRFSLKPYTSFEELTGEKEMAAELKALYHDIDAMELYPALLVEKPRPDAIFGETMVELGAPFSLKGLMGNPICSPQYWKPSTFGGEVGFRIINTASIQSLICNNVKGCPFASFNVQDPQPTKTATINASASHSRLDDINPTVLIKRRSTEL

[2] = Persistence of intact molecule in gastric and intestinal walls; type: in vivo; conditions: after oral administration in the rat
Protocol: The presence of the vanilloid radical, essential to the expression of the gastroprotective mechanism, is guaranteed by the prolonged persistence of high amounts of intact amtolmetin guacyl molecule in the gastric and intestinal walls (at least 2 hours after oral administration in the rat).

[3] = test system: gastric bicarbonate secretion; experiment: Gastric bicarbonate secretion after stimulation with histamine; type: in vivo, rat; conditions: fig. 6
[4] = test system: Rats; experiment: Diuresis in normally hydrated rats; type: in vivo
Protocol: In the course of various studies conducted on animals to show the lack of renal impairment, a test was carried out to compare the diuresis in normally hydrated rats treated orally for 8 consecutive days with amtolmeting guacyl and diclofenac, which is also a NSAID. […] It is to be stressed that the behaviour of diclofenac is completely in line with the behaviour of a NSAID as known in the art, that is to say to markedly reduce the diuresis, while that of amtolmeting guacyl is completely unforeseeable.
Repeated doses (one per day) for 8 days increased diuresis in the treated rats by 35% (see fig. 13).

[5] = test system: Salmonella Typhimurium; type: cell-based
[6] = test system: guinea-pig isolated ileum; experiment: Intestinal motility in isolated ileum with various agonists; conditions: all of the traditional agonists (histamine, acetylcholine, serotonin)
Description: In parallel we also studied the possible effect on intestinal motility in the guinea-pig isolated ileum (b.r. No. 29) using various agonists (fig. 7, 8 and 9).

[7] = test system: Rats; experiment: Carrageenan pleurisy, exudate volume at 4 hours; type: in vivo; conditions: for Exudate volume: 4 hour; for decrease exudate volume: compared to gum tragacanth control
Protocol: Compounds were administered orally 1 hour prior to and 1 hour post pleurisy induction in a volume of 0.5 ml 1% gum tragacanth. Indomethacin was used at 3 mg/kg. MED 15 was used at 25, 50 and 100 mg/kg.
A 1% solution of carrageenan in sterile saline was prepared. The solution was placed in an incubator at 37°C for half an hour to allow complete hydration of the carrageenan. The solution was then mixed to homogeneity.
A 21Gx40mm syringe needle was reduced in length to 5mm and fitted to a 1ml syringe containing the irritant. Rats were lightly anaesthetised with halothane. Each animal was placed on its left side. The skin over the thorax was lifted with and a 1cm incision made through the skin with a pair of scissors. The wound was opened to expose the underlying muscle. Using a scalpel, a 2-3mm incision was made into the muscle of the 5th-6th intercostal space. A volume of 0.15ml of carrageenan solution was then injected into the pleural cavity. The wound was closed with a 11mm Michel clip and the animal allowed to recover from the anaesthetic. Groups of animals were killed 4 hours after pleurisy induction.
Lavage solution: One part of 3.15% trisodium citrate solution, mixed with nine parts of Hank's balanced salt solution.
Rats were killed by over exposure to carbon dioxide. For each rat the skin over the thorax was moistened with IMS alcohol. The skin over the sternum was then lifted and a 5cm cut made, to expose the musculature of the upper abdomen and thoracic cavity. The muscle overlying the xiphisternum was lifted with tissue forceps and a 1cm cut made through the muscle to reveal the cartilage. This was then lifted and the diaphragm perforated just beneath the cartilage. Two cuts were then made through the rib cage either side of the cartilage to form a flap which could be folded back to expose the thoracic cavity.
Using a syringe, 1ml of lavage fluid was introduced into the thoracic cavity. The fluid was aspirated 2-3 times with a 3ml pastette to wash the cavity, before being collected into separate 10ml conical-based plastic test-tubes. Any blood contaminated fluids were rejected.
The mass of each tube with fluid was determined. By subtracting the mass of an empty tube from these values, and assuming a density for the fluid of 1g/cm^3, the fluid volume was quantified.
Results were analysed by ANOVA followed by Bonferroni T-test. Values of p<0.05 were considered significant.
Dosing was one hour prior to and one hour post pleurisy induction and inflammation was assessed at 4 hours.

[8] = Acute toxicity studies; conditions: in vivo
[9] = test system: osteoarthritis; experiment: Clinical trials in osteoarthritis; type: in vivo, man; conditions: 550 patients, mean 80 days; versus seven reference NSAIDs; listed as Amtolmetin guacyl
Description: In this degenerative disease amtolmetin guacyl was compared with diclofenac, diflunisal, flurbiprofen, ibuprofen, ketoprofen, naproxen and tolmetin.

[10] = test system: rat bone marrow; experiment: Micronucleus test; conditions: in vivo
[11] = test system: Saccharomycetes pombe Pl; type: cell-based
[12] = test system: rat; experiment: Fertility, embryotoxicity and teratogenicity studies; type: in vivo
[13] = test system: rabbit; experiment: as above; type: in vivo
[14] = test system: patients; experiment: Clinical trials: tolerability, adverse events and suspensions of treatment; type: in vivo, man; conditions: in vivo
Description: Interest in the amtolmetin guacyl molecule arose following a thorough analysis of the results of 31 comparative and 6 non-comparative clinical trials involving 1596 patients. […] Turthermore the physician, being aware of administering an NSAID, was expecting adverse events and could not be expected to be an impartial observer. The few cases of gastro-intestinal phenomena reported with amtolmetin guacyl were transitory and in no event accompanied by the presence of occult blood in the stools. Moreover, even in the presence of a reported side-effect it was almost never necessary to suspend treatment (0.4% of suspensions).
Following are summarized the results obtained on a total of 1596 patients in 37 clinical trials.
Confirmation of the above described advantages is the very low incidence of treatment suspension for adverse events found in clinics (Table 17), which is not the case for most of NSAIDs known in the art (Table 18).

Question: With `COc1ccccc1OC(=O)CNC(=O)Cc1ccc(C(=O)c2ccc(C)cc2)n1C` [MED 15, 2-methoxyphenyl-1-methyl-5p-methylbenzoylpyrrol-2-acetamido acetate] as the compound, how does the “inhibition of COX2” value [1] read?
Answer: inhibition

Question: What about the “persistence of high amounts of intact molecule in the gastric and intestinal walls” value [2] of the same compound?
Answer: at least 2 hours

Question: What about the “increase in bicarbonate production” value [3] of the same compound?
Answer: 67%

Question: What about the increased diuresis ([4]; repeated doses (one per day) for 8 days) of the same compound?
Answer: 35%

Question: And the increased diuresis ([4]; single dose, average)?
Answer: 10%

Question: What about the diuresis ([4]; treated orally for 8 consecutive days, fig. 13) of the same compound?
Answer: definite increase in diuresis

Question: And the Ames test [5]?
Answer: absence of amtolmetin guacyl-related damage

Question: What about the motility [6] of the same compound?
Answer: decrease in motility

Question: What about the “Exudate volume” value ([7]; 25mg/kg orally 1 hour prior to and 1 hour post induction) of the same compound?
Answer: 0.84 ± 0.09 mL

Question: What about the decrease exudate volume ([7]; 25mg/kg) of the same compound?
Answer: 11%

Question: And the “Exudate volume” value ([7]; 50mg/kg orally 1 hour prior to and 1 hour post induction)?
Answer: 0.74 ± 0.06 mL

Question: What about the decrease exudate volume ([7]; 50mg/kg) of the same compound?
Answer: 21%

Question: What about the “Exudate volume” value ([7]; 100mg/kg orally 1 hour prior to and 1 hour post induction) of the same compound?
Answer: 0.53 ± 0.05 mL

Question: And the decrease exudate volume ([7]; 100mg/kg)?
Answer: 44%

Question: What about the “acute toxicity, tolerability” value [8] of the same compound?
Answer: excellent drug tolerability

Question: And the “Evaluation of antiphlogistic activity” value [9]?
Answer: statistically significant more rapid and more marked activity; also recorded: Amtolmetin guacyl was more rapid and more active in a statistically significant manner in osteoarthritis compared to the reference NSAIDs

Question: What about the micronucleus test [10] of the same compound?
Answer: absence of amtolmetin guacyl-related damage

Question: What about the forward mutation [11] of the same compound?
Answer: absence of amtolmetin guacyl-related damage

Question: What about the “fertility, embriotoxicity and teratogenicity” value [12] of the same compound?
Answer: safety

Question: And the “fertility, embriotoxicity and teratogenicity” value [13]?
Answer: safety

Question: What about the Treatment suspended ([14]; human) of the same compound?
Answer: 4

Question: What about the “incidence of adverse events involving the stomach” value ([14]; human) of the same compound?
Answer: ~5%

Question: What about the “reports of gastric discomfort” value ([14]; human) of the same compound?
Answer: 4%

Question: What about the Treatment suspended ([14]; human, 10 days) of the same compound?
Answer: 3

Question: What about the Treatment suspended % ([14]; human, 10 days) of the same compound?
Answer: 1,6%

Question: What about the Treatment suspended ([14]; human, 21 days) of the same compound?
Answer: 0

Question: And the Treatment suspended ([14]; human, 30 days)?
Answer: 1

Question: What about the Treatment suspended % ([14]; human, 30 days) of the same compound?
Answer: 0,7%

Question: What about the Treatment suspended ([14]; human, 60 days) of the same compound?
Answer: 0

Question: And the Treatment suspended ([14]; human, 90 days)?
Answer: 0

Question: What about the Treatment suspended ([14]; human, 120 days) of the same compound?
Answer: 0

Question: And the Treatment suspended ([14]; human, 150 days)?
Answer: 0

Question: And the Treatment suspended ([14]; human, 180 days)?
Answer: 0

Question: What about the gastric lesions [14] of the same compound?
Answer: not to induce gastric lesions

Question: And the “variations of the routine biological parameters” value [14]?
Answer: no significant variations
